Here are results for one compound from patent US20230158042A1, “COMBINATION CANCER THERAPY WITH PENTAAZA MACROCYCLIC RING COMPLEX AND HORMONE THERAPY AGENT” (Galera Labs, LLC, priority 2020, published 2023).

In one assay the test system is MCF7-HTR cells. In words: Ki-67 staining in MCF7-HTR cells. The assay is classed as cell-based, human. The conditions noted are these: 5 µM GC4419 for 5 days. An excerpt: With respect to FIG. 16a, the data from FIG. 7i, where MCF7-HTR cells were stained for Ki-67, as well as DAPI, were counted with ImageJ and quantified for average Ki-67 intensity as shown in the bar graph. With respect to FIGS. 16b and 16c, T47D and T47D-HTR cells were stained for Ki-67 as well as DAPI, and particles in the nucleus were counted with ImageJ and quantified for average Ki-67 intensity as shown in the bar graph. In FIGS. 16d and 16e, MCF7-HTR cells, and in FIGS. 16f and 16g, T47D-HTR cells, were treated with 5 µM GC4419 and/or 1 µM 4-hydroxy-Tam for 5 days, and then stained for Ki-67 as well as DAPI. Quantifications of average Ki-67 intensity are shown in the bar graphs. All experiments were done in triplicate. Error bars represent ± 1 SEM. ***p < 0.001. Representative images are shown.
Cells seeded on glass coverslips were fixed in 4% paraformaldehyde and then blocked with 1% BSA and 10% normal goat serum in 1x PBS. Cells were incubated with anti-Ki-67 (c-bioscience) antibody in 1x PBS followed by incubation with goat anti-rabbit IgG conjugated with Alexa Fluor 647 (Invitrogen) in 1x PBS with 5% goat serum. Cells were washed in 1x PBS, mounted, and imaged with a fluorescence microscope. Fluorescence images were captured using a laser scanning confocal microscope (Nikon A1 R). The paired images in all the figures were collected at the same gain and offset settings. […]

For assay [1], the system named is MCF7-MnSOD^K68Q cells. Kind of assay: Ki-67 staining in MCF7-MnSOD^K68Q cells. Format: cell-based, human. The conditions noted are these: 5 µM GC4419 for 5 days. The procedure: MCF7-MnSOD^K68Q cells (in FIGS. 17a and 17b) and T47D-MnSOD^K68Q cells (in FIGS. 17c and 17d) were treated with 5 µM GC4419 and/or 1 µM 4-hydroxy-Tam for 5 days, and then stained for Ki-67 as well as DAPI. Quantifications of average Ki-67 intensity are shown in the bar graphs. In FIG. 17e, MCF7 and MCF7-HTR cells were implanted into both hind limbs of nude mice and tumor volumes were measured every 3 days for 6 weeks and the number of tumors that successfully implanted versus the total number of mice infected with MCF7 and MCF7-HTR as well as the average tumor weight and tumor size are shown. Representative images are shown. All experiments were done in triplicate. Error bars represent ± 1 SEM. ***p < 0.001.
Cells seeded on glass coverslips were fixed in 4% paraformaldehyde and then blocked with 1% BSA and 10% normal goat serum in 1x PBS. Cells were incubated with anti-Ki-67 (c-bioscience) antibody in 1x PBS followed by incubation with goat anti-rabbit IgG conjugated with Alexa Fluor 647 (Invitrogen) in 1x PBS with 5% goat serum. Cells were washed in 1x PBS, mounted, and imaged with a fluorescence microscope. Fluorescence images were captured using a laser scanning confocal microscope (Nikon A1 R). The paired images in all the figures were collected at the same gain and offset settings. Post-collection processing was applied uniformly to all paired images.

A further assay has as its system LNCaP-MnSOD^K68Q cells. In words: Clonogenic cell survival in LNCaP-MnSOD^K68Q cells. The assay is classed as cell-based. Particulars: GC4419 20 µM for 5 days, treated with ENZ. The procedure: In FIG. 20a, clonogenic cell survival experiments were done in LNCaP-ENZR cells infected with lenti-MnSOD^K68R or lenti-MnSOD^K68Q, in the presence of ENZ (10 µM). In FIG. 20b, clonogenic survival assays were done in LNCaP cells infected with lenti-MnSOD^WT, lenti-MnSOD^K68R, and lenti-MnSOD^K68Q, and selected with neomycin, and placed in 10 µM of ENZ for 72 hr. Error bars ± 1 SEM. Experiments were done in triplicate. **p < 0.01.
FIGS. 21a-21b are a chart and graph showing that pharmacologically mimicking the activity of deacetylated lysine 68 MnSOD with a manganese pentaazamacrocyclic dismutase mimetic both inhibited the growth of LNCaP-ENZR tumors and reversed the enzalutamide resistance in LNCaP-ENZR / LNCaP—MnSOD^K68Q cells and tumors. In FIG. 21a, clonogenic cell survival experiments were performed in LNCaP-ENZR (left two bars) and LNCaP—MnSOD^K68Q (right two bars) treated with ENZ, with or without GC4419 (20 µM) for 5 days. […] Tumor volumes were measured three times a week for 46 days. For each group n=10. Error bars ± 1 SEM. All experiments done in triplicate. **p < 0.01.

Assay [2] concerns MCF7-MnSOD^K68Q cells. Kind of assay: Clonogenic cell survival in MCF7-MnSOD^K68Q cells. The assay is classed as cell-based, human. The conditions noted are these: GC4419 10 µM alone. The procedure:
FIGS. 25a-25b show clonogenic cell survival studies in MCF7-MnSOD^K68Q cells exposed to either: Fulv at 100 nM (in FIG. 25a); or Palb at 0.5 µM (in FIG. 25b) using standard methods. […] Error bars are ± 1 SEM. Experiments in triplicate. *** p < 0.001.
Clonogenic cell survival assay. For the clonogenic survival analysis, exponentially growing cells were replated using appropriate dilutions, and clonogenic survival was evaluated after 14 days in regular growth medium. Cells were stained with crystal violet, and colonies of >50 cells were counted and utilized to calculate clonogenic survival^46.

Assay [3] relates to MCF7-Cispl-R cells. In words: SOX2 and OCT4 levels in cisplatin-resistant MCF7 cells. Format: cell-based, human. The conditions noted are these: data not shown.
Assay [4] has as its system MCF7-Cispl-R cells. Kind of assay: Cisplatin resistance phenotype of MCF7-Cispl-R cells (clonogenic cell survival). The assay is classed as cell-based, human. Particulars: treated with GC4419. The method, then: FIGS. 27a-27c are an image and graphs showing that MnSOD—AcK68/ROS/HIF2α dysregulation directs PanR (multi-therapy resistance to cancer therapeutics). […] In FIG. 27b, ROS was measured in MCF7-Cispl-R cells, compared with MCF7 cells, using an Amplex Red assay. In FIG. 27c, MCF7 and MCF7-MnSOD^K68Q cells were measured by clonogenic cell survival assays, without and with cisplatin exposure, and infected with scrambled (C) or HIF2α shRNA. All experiments were done in triplicate. Error bars are ± 1 SEM. * p < 0.05.
To evaluate clonogenic cell survival by testing cell growth at low density, 500 exponentially growing cells were plated in triplicate in 6-well plates using serial dilution, and the growth of the cells was examined throughout 14 days in regular growth medium. Cells were fixed with 70% ethanol for 5 minutes and then stained with 0.5% crystal violet (in 25% methanol) for 20 minutes. Photos of stained plates were taken, and colonies of more than 50 cells were counted and used to calculate clonogenic survival.

Assay [5] has as its system Tam resistant as well as loss of Sirt3 tumor cell lines. Kind of assay: In vitro Tam resistance in Tam resistant and loss of Sirt3 tumor cell lines. The assay is classed as cell-based. Particulars: data not shown.
For a further assay, the system named is mice lacking Sirt3. The conditions noted are these: IP injection with 2 mg/kg 30 minutes before IR; cited from earlier work.

For `[Cl][Mn][Cl].c1cc2nc(c1)CN[C@H]1CCCC[C@@H]1NCCN[C@H]1CCCC[C@@H]1NC2` [GC4419], the “Ki-67 IHC staining” value in the assay with MCF7-HTR cells is “decreased Ki-67 IHC staining”; with MCF7-MnSOD^K68Q cells [1] it was “reversed the increase in Ki-67 IHC staining”. Besides, the “ENZR phenotype (clonogenic cell survival)” value with LNCaP-MnSOD^K68Q cells was “converted to a sensitive phenotype”. The “cell growth (clonogenic)” value in the assay with MCF7-MnSOD^K68Q cells [2] is “inhibited the growth of MnSOD^K68Q breast cancer cells”. In addition, in the assay on MCF7-Cispl-R cells [3], the “SOX2 and OCT4 levels” value is “decreased SOX2 and OCT4 levels”. For the same compound, the Cispl-R phenotype result in the assay on MCF7-Cispl-R cells [4] is reported as “converted the Cispl-R cells to a sensitive phenotype”. In assay [5], the Tam resistance result is listed as “reverses Tam resistance”. Moreover, in the assay on mice lacking Sirt3, the liver damage entry was “attenuated liver damage”.
